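Method: 48-hour compound exposure of cells in 96-well plates, five concentrations, linear interpolation of endpoints. The concentration for 50% growth inhibition is given as GI50. TGI denotes the concentration required for complete inhibition of growth.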
Legend:
Assay in all cases: NCI-60 cell line screen, 48 h
[1] = tested on: HCT-116 colon
[2] = tested on: 786-0 renal
[3] = tested on: TK-10 renal
[4] = tested on: CAKI-1 renal
[5] = tested on: MDA-MB-435
[6] = tested on: HOP-92 NSCLC
[7] = tested on: BT-549 breast

SMILES | TGI [1] | TGI [2] | TGI [3] | TGI [4] | TGI [5] | TGI [6] | TGI [7] | GI50 [1] | GI50 [2] | GI50 [3] | GI50 [4] | GI50 [5] | GI50 [6] | GI50 [7]
C=C1C(=O)O[C@@H]2C(=O)[C@@H](C)[C@@H]3C=CC(=O)[C@@]3(C)[C@@H](OC(=O)/C(C)=C\C)[C@H]12 | 0.681 µM | 1 µM | 1.74 µM | 0.686 µM | 3.69 µM | 1.43 µM | 2.01 µM | – | – | – | – | – | – | –
Cc1n[nH]c(=S)n1/N=C/c1ccc(F)c(Oc2ccccc2)c1 | > 100 µM | > 100 µM | > 100 µM | 0.944 µM | 77.1 µM | > 100 µM | > 100 µM | 36 µM | 42.3 µM | 43.9 µM | 0.496 µM | 28.6 µM | 63.3 µM | 63.7 µM
CCN(CC)CCOc1ccc(/C(=C(\C)Cc2ccc(OC)cc2)c2ccc(OC(=O)NCc3ccccc3)cc2)cc1 | 2.97 µM | 3.04 µM | 6.77 µM | 6.53 µM | 3.97 µM | 3.17 µM | 3.36 µM | 1.57 µM | 1.64 µM | 2.68 µM | 2.27 µM | 1.86 µM | 1.48 µM | 1.7 µM
Cc1cc(O)c(C(c2cccnc2)c2c(O)cc(C)[nH]c2=O)c(=O)[nH]1 | > 100 µM | > 100 µM | > 100 µM | > 100 µM | > 100 µM | – | > 100 µM | – | – | – | – | – | – | –
CN1CCC[C@@H]1CCO[C@](C)(c1ccccc1)c1ccc(Cl)cc1 | 13.7 µM | 19.7 µM | 23.3 µM | 21.5 µM | 8.19 µM | 8.37 µM | 22.4 µM | 3.62 µM | 5.88 µM | 10.7 µM | 7.12 µM | 2.46 µM | 1.8 µM | 9.64 µM
CCOC(=O)c1c(C)nc2ccc(Cl)cc2c1-c1ccccc1 | 28.8 µM | 35.1 µM | > 100 µM | 55 µM | 68.4 µM | 20.8 µM | 57.2 µM | 12.3 µM | 17 µM | 34.4 µM | 21.1 µM | 23.9 µM | 1.52 µM | 22.5 µM
CCOC(=O)c1ccc(N(CCOS(C)(=O)=O)CCOS(C)(=O)=O)cc1C | > 100 µM | 42.2 µM | > 100 µM | 27.1 µM | > 100 µM | > 100 µM | > 100 µM | 33.4 µM | 16.7 µM | 50.7 µM | 6.32 µM | 48.5 µM | 36.7 µM | 34.1 µM
O=C(Nc1nccs1)c1cc2c(cc1Cl)Sc1nccn1S2(=O)=O | 29.5 µM | 29.4 µM | 34.4 µM | 36.9 µM | 31.3 µM | 39.4 µM | 35.4 µM | 16.1 µM | 16 µM | 18.9 µM | 8.5 µM | – | – | 18.2 µM
Cn1cccc1-c1cc(-c2cccs2)[nH]c(=O)c1C#N | > 100 µM | > 100 µM | > 100 µM | > 100 µM | > 100 µM | – | > 100 µM | > 100 µM | > 100 µM | > 100 µM | > 100 µM | > 100 µM | – | > 100 µM
O=C1/C(=C\C(Cl)=C/c2ccc([N+](=O)[O-])cc2)SC(=S)N1CCc1ccc(O)cc1 | 0.455 µM | 0.707 µM | 3.25 µM | 1.53 µM | 1.95 µM | 3.29 µM | 1.28 µM | 0.201 µM | 0.255 µM | 1.53 µM | 0.548 µM | 0.552 µM | 1.6 µM | 0.332 µM
COc1ccc(-c2nn(-c3cccc(NC(=O)Nc4ccc(Cl)c(C(F)(F)F)c4)c3)cc2-c2ccncc2)cc1Cl | 8.6 µM | 4.49 µM | 92.2 µM | > 100 µM | 5.92 µM | – | 4.83 µM | 2.02 µM | 1.91 µM | 4.8 µM | 2.18 µM | 2.16 µM | – | 2.08 µM
Cc1cccc2c(N=Nc3ccc(S(N)(=O)=O)cc3)c(O)[nH]c12 | > 25 µM | > 25 µM | > 25 µM | > 25 µM | > 25 µM | > 25 µM | > 25 µM | > 25 µM | > 25 µM | > 25 µM | > 25 µM | > 25 µM | > 25 µM | > 25 µM
Cc1c2c(nn1C(=O)c1nn(-c3ccc(Cl)cc3)cc1O)-c1ccccc1CC2 | > 100 µM | > 64.1 µM | > 100 µM | 6.85 µM | > 100 µM | > 100 µM | > 100 µM | 0.0339 µM | 0.319 µM | 0.0429 µM | 0.0971 µM | 0.0412 µM | 0.0521 µM | 0.0306 µM
O=C1C(=O)c2ccccc2-c2ccccc21 | 2.21 µM | 3.35 µM | 3.3 µM | 3.34 µM | 0.416 µM | 2.93 µM | 3.07 µM | 0.831 µM | 1.83 µM | 1.82 µM | 1.75 µM | 0.198 µM | 1.46 µM | 1.66 µM
CN[C@]12CC3(C=CC(=O)C=C3)O[C@@]1(Cc1ccc(OC)cc1)N(C)C(=O)N2 | 7.98 µM | 4.12 µM | 6.72 µM | 10.2 µM | 8.64 µM | 4.73 µM | 4.22 µM | 0.812 µM | 2.03 µM | 2.48 µM | 2.69 µM | 2.57 µM | 2.15 µM | 1.52 µM
COc1ccc(-c2cnc3ccnn3c2-c2cc(OC)c(OC)c(OC)c2)cc1 | > 100 µM | > 100 µM | > 100 µM | – | 0.976 µM | > 100 µM | 95.4 µM | 2.97 µM | 4.31 µM | 27.3 µM | – | 0.282 µM | > 100 µM | 12.2 µM
Cc1ccc(S(=O)(=O)/N=c2\ssc(Nc3ccccc3)c2Cl)cc1 | – | > 50 µM | 22.8 µM | 21.1 µM | 22.1 µM | > 50 µM | 17 µM | – | 27.7 µM | 8.21 µM | 7.6 µM | 8.41 µM | 7.43 µM | 5.27 µM
c1cc(OCCN2CCCCCC2)ccc1CNc1ccc2nc(CCC3CCCCC3)[nH]c2c1 | 3.14 µM | 3.29 µM | 10.9 µM | 4.05 µM | 3.35 µM | 3.09 µM | 5.54 µM | 1.62 µM | 1.6 µM | 3.18 µM | 1.98 µM | 1.74 µM | 0.836 µM | 1.83 µM
O=C(O)c1ccc2c(c1Nc1ccccc1)C(=O)c1ccccc1C2=O | > 100 µM | > 100 µM | > 100 µM | 47.1 µM | > 100 µM | > 100 µM | 70 µM | 26.6 µM | 39.4 µM | 98.5 µM | 16 µM | 48.1 µM | 27.9 µM | 16.5 µM
O=c1cc(-c2ccc(Cl)cc2)[nH]c2ncccc12 | > 100 µM | > 100 µM | > 100 µM | > 100 µM | 22.4 µM | > 100 µM | > 100 µM | 32.1 µM | 34.1 µM | – | – | 5.96 µM | – | –
O=C1N=C(c2ccccc2)OC1C(=O)c1ccccc1 (stereo not drawn) | > 100 µM | > 100 µM | > 100 µM | > 100 µM | > 100 µM | – | > 100 µM | – | – | – | – | – | – | –
O=C(Nc1ccccc1)Nc1cccc(-n2cc(-c3ccncc3)c(-c3ccc(O)c(Cl)c3)n2)c1 | 13.9 µM | 11.7 µM | 54.6 µM | 14.3 µM | 17 µM | – | 12.7 µM | 3.41 µM | 3.24 µM | 6.91 µM | 2.92 µM | 3.03 µM | – | 3.29 µM
C#CCN=C(N/N=C/c1ccc([N+](=O)[O-])o1)NS(=O)(=O)c1cc(C)c(Cl)cc1SCC(N)=O | 20.3 µM | 36.5 µM | 38.3 µM | 45.1 µM | > 100 µM | – | 9.43 µM | 8.03 µM | 19.4 µM | 22.2 µM | 25.7 µM | > 100 µM | – | 1.79 µM
CN(C)CCCN(c1nc(C(Cl)(Cl)Cl)ns1)c1nc(C(Cl)(Cl)Cl)ns1 | 3.34 µM | 3.3 µM | 3.58 µM | 18.5 µM | 4.54 µM | 5.33 µM | – | 1.66 µM | 1.72 µM | 1.93 µM | 4.82 µM | 2.05 µM | 1.64 µM | –
Oc1ccc(CNCc2ccccc2)c2cccnc12 | > 100 µM | > 24.7 µM | – | > 100 µM | > 100 µM | 0.57 µM | > 100 µM | – | – | – | – | – | – | –
C/C(CC(=O)NNc1ccc([N+](=O)[O-])cc1)=N\Nc1ccc([N+](=O)[O-])cc1 | 28.3 µM | > 100 µM | 35 µM | 32.2 µM | > 100 µM | 28.3 µM | – | 6.04 µM | 10.4 µM | 13.4 µM | 1.93 µM | 4.56 µM | 7.94 µM | –
CCCc1cc2cc(-n3nc(C)c4c3CC(C)(C)CC4=O)cc(NC3CCC(O)CC3)c2c(=O)[nH]1 (stereo not drawn) | > 100 µM | > 100 µM | > 100 µM | – | > 100 µM | 1.8 µM | > 100 µM | 0.0634 µM | 0.874 µM | 0.0964 µM | – | 0.0812 µM | 0.194 µM | 0.959 µM

From PubChem BioAssay (NCI)
